Data: patent US9567345B2, “Pharmaceutically active pyrazolo-triazine derivatives” (LEAD DISCOVERY CENTER GMBH, priority 2012, dated 2017)
Where two headings read alike, the source gives them in different places.

Assays:
[1] = molecular target: CDK7/CycH/Mat1 (Homo sapiens, UniProt P50613); assay: CDK7 Enzymatic Activity Assay (Lance Kinase Activity Assay, FRET); assay type: biochemical
Protocol: (§1) This protocol describes how the Lance Kinase Activity Assay was performed to determine IC50 values of compounds of general formula (I) against CDK/Cyclin complexes. The principle behind this enzymatic assay is based upon the phosphorylation of the Ulight-Peptide Substrat. It is detected by using a specific EU-labeled anti-phospho peptide antibody.
(§2) Binding of an inhibitor to the kinase prevents phosphorylation of the Ulight-MBP Substrat, resulting in a loss of FRET.
CDK7 Enzymatic Activity Assay
(§3) The compounds of general formula (I) exemplary summarized in Table 1 were diluted from a 10 mM DMSO stock solution 1:10 in a total volume of 15 μl DMSO. This compound predilution was then serial diluted 1:3 over 8 steps in DMSO and briefly spun down. Each compound solution was now diluted 1:20 in Enzymatic Buffer (HEPES: 50 mM, pH: 7.5; MgCl2: 10 mM; EGTA: 1 mM; DTT: 2 mM; Tween-20: 0.01%), mixed thoroughly and spun down.
(§4) For positive controls, 2 μl of DMSO working solution were mixed with 6 μl CDK7/CycH/Mat1/substrate working solution and 2 μl ATP working solution. Positive and negative controls were calculated from at least 8 different wells. The 384 well plates were mixed in a Teleshaker plate mixer (Beckman Coulter, Brea, Calif., USA) at 2000 rpm for 40 sec, and incubated for 1 h at room temperature before addition of 10 μl LANCE Detection Buffer (1×; EDTA: […]; Eu-Anti-P-MBP: 4 nM) per well. Plates were mixed in a Teleshaker plate mixer (Beckman Coulter, Brea, Calif., USA) at 2000 rpm for 40 sec, followed by incubation with Detection Buffer for 1 h, and reading. […] IC50 values were determined from the sigmoidal dose response curves with the software Quattro Workflow (Quattro GmbH, Munich, Germany).

[2] = molecular target: CDK9/Cyclin T1 (Homo sapiens, UniProt P50750); assay: CDK9 Enzymatic Activity Assay (Lance Kinase Activity Assay, FRET); assay type: biochemical; conditions: for IC50: Table 5B, class symbols per IC50 [nM] ranges of b581, read-out: CDK9: Selectivity of CDK7 inhibition over CDK9 inhibition
CDK9/Cyclin T1, sequence (P50750 whole entry): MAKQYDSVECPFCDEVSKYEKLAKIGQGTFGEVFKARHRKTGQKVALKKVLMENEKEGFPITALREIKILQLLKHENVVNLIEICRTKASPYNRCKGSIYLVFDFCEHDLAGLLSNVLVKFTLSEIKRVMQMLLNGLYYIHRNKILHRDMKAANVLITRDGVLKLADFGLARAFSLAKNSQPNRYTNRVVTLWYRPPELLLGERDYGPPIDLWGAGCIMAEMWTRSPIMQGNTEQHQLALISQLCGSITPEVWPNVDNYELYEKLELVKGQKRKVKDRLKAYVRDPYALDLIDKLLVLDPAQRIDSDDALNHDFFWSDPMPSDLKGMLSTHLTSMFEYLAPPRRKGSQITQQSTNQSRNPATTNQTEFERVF
CDK9/Cyclin T1, sequence (O60563 whole entry partner): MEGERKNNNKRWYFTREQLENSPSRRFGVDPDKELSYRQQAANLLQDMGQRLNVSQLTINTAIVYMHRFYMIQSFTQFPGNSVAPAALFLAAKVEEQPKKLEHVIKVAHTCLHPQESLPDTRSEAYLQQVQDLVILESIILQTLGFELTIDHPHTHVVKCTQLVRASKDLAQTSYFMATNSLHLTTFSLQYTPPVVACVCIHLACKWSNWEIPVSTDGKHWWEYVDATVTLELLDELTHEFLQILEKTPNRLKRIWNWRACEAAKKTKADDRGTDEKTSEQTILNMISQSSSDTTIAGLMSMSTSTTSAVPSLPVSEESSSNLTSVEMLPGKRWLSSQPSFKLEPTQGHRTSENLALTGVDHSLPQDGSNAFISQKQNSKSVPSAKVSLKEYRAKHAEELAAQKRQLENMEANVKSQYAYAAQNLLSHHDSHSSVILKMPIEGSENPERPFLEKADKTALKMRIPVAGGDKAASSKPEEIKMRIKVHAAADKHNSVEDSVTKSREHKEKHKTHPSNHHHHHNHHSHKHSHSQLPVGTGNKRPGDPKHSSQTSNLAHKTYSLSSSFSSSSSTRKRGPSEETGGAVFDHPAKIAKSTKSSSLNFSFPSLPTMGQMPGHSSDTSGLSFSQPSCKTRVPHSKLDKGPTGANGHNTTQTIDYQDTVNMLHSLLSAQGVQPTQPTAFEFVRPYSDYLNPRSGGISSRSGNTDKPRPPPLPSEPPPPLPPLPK
Protocol: as §1, §2
CDK9 Enzymatic Activity Assay
as §3
as §4, with “CDK9/cyclin T1/substrate” for “CDK7/CycH/Mat1/substrate”

[3] = CDK7/CycH/Mat1, 25 μM ATP final, class ranges, read-out: CDK7: IC50 [nM] for CDK7 inhibition

CDK7/CycH/Mat1, sequence (P50613 whole entry): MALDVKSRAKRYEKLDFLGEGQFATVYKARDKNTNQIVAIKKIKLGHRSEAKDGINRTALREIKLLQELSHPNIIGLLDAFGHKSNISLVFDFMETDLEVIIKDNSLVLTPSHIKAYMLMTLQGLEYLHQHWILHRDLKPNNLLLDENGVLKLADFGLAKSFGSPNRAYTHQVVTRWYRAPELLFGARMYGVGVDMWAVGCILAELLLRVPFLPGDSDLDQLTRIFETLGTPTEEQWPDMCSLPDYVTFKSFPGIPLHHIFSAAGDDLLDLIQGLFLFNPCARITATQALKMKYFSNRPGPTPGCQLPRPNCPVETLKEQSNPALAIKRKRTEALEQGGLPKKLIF

Row | Structure (SMILES) | IC50 [1, 3] | IC50 [2] | other results
1 | CC(C)c1cnn2c(NCc3ccccc3-n3cccn3)nc(OC3CC4(CNC4)C3)nc12 [(VII-04), N-(2-(1H-pyrazol-1-yl)benzyl)-2-(2-azaspiro[3.3]heptan-6-yloxy)-8-isopropylpyrazolo[1,5-a][1,3,5]triazin-4-amine] | < 5 nM |  | 
2 | COc1ccccc1[C@H](C)Nc1nc(O[C@@H]2CCCNC2)nc2c(C(C)C)cnn12 [(VII-10), 8-isopropyl-N-((S)-1-(2-methoxyphenyl)ethyl)-2-((R)-piperidin-3-yloxy)pyrazolo[1,5-a][1,3,5]triazin-4-amine] | < 5 nM | 500 to 2500 nM | 
3 | COc1ccccc1[C@H](C)Nc1nc(OC2CCNCC2)nc2c(C(C)C)cnn12 [(VII-15), (S)-8-isopropyl-N-(1-(2-methoxyphenyl)ethyl)-2-(piperidin-4-yloxy)pyrazolo[1,5-a][1,3,5]triazin-4-amine] | < 5 nM | > 2500 nM | 
4 | CC(C)Oc1ccccc1CNc1nc(OC2CCNCC2)nc2c(C(C)C)cnn12 [(VII-17), N-(2-isopropoxybenzyl)-8-isopropyl-2-(piperidin-4-yloxy)pyrazolo[1,5-a][1,3,5]triazin-4-amine] | < 5 nM | > 2500 nM | 
5 | CC(C)c1cnn2c(NCc3ccccc3-n3ccnc3)nc(OC3CCNCC3)nc12 [(VII-19), N-(2-(1H-imidazol-1-yl)benzyl)-8-isopropyl-2-(piperidin-4-yloxy)pyrazolo[1,5-a][1,3,5]triazin-4-amine] | < 5 nM | 500 to 2500 nM | 
6 | CC(C)c1cnn2c(NCc3ccccc3-n3cncn3)nc(O[C@@H]3CCCNC3)nc12 [(VII-20), (R)-N-(2-(1H-1,2,4-triazol-1-yl)benzyl)-8-isopropyl-2-(piperidin-3-yloxy)pyrazolo[1,5-a][1,3,5]triazin-4-amine] | < 5 nM | 500 to 2500 nM | 
7 | Cc1nccn1-c1ccccc1CNc1nc(OC2CCNCC2)nc2c(C(C)C)cnn12 [(VII-24), 8-isopropyl-N-(2-(2-methyl-1H-imidazol-1-yl)benzyl)-2-(piperidin-4-yloxy)pyrazolo[1,5-a][1,3,5]triazin-4-amine] | < 5 nM | > 2500 nM | 
8 | Cc1nccn1-c1ccccc1CNc1nc(O[C@@H]2CCNC2)nc2c(C(C)C)cnn12 [(VII-25), (R)-8-isopropyl-N-(2-(2-methyl-1H-imidazol-1-yl)benzyl)-2-(pyrrolidin-3-yloxy)pyrazolo[1,5-a][1,3,5]triazin-4-amine] | < 5 nM | > 2500 nM | 
9 | CC(C)c1cnn2c(N[C@@H](C)c3ccccc3Cl)nc(O[C@@H]3CCCNC3)nc12 [(VII-28), N-((S)-1-(2-chlorophenyl)ethyl)-8-isopropyl-2-((R)-piperidin-3-yloxy)pyrazolo[1,5-a][1,3,5]triazin-4-amine] | < 5 nM | > 2500 nM | 
10 | CC(C)c1cnn2c(NCc3ccccc3N3CCC3=O)nc(O[C@@H]3CCCNC3)nc12 [(VII-40), (R)-1-(2-(((8-isopropyl-2-(piperidin-3-yloxy)pyrazolo[1,5-a][1,3,5]triazin-4-yl)amino)methyl)phenyl)azetidin-2-one] | > 25 nM | > 2500 nM | 
11 | CC(C)c1cnn2c(NCc3ccccc3-c3cccnc3)nc(OC3CCN(C)CC3)nc12 [(VII-45), 8-isopropyl-2-((1-methylpiperidin-4-yl)oxy)-N-(2-(pyridin-3-yl)benzyl)pyrazolo[1,5-a][1,3,5]triazin-4-amine] | < 5 nM | > 2500 nM | 
12 | CC(C)c1cnn2c(NCc3ccccc3-c3cccnc3)nc(O[C@@H]3CCCNC3)nc12 [(VII-46), (R)-8-isopropyl-2-(piperidin-3-yloxy)-N-(2-(pyridin-3-yl)benzyl)pyrazolo[1,5-a][1,3,5]triazin-4-amine] | < 5 nM | > 2500 nM | 
13 | CC(C)c1cnn2c(NCc3ccccc3Oc3ccccc3)nc(OC3CCN(C)CC3)nc12 [(VII-47), 8-isopropyl-2-((1-methylpiperidin-4-yl)oxy)-N-(2-phenoxybenzyl)pyrazolo[1,5-a][1,3,5]triazin-4-amine] | < 5 nM |  | 
14 | CC(C)c1cnn2c(NCc3ccccc3Oc3ccccc3)nc(O[C@@H]3CCCNC3)nc12 [(VII-48), (R)-8-isopropyl-N-(2-phenoxybenzyl)-2-(piperidin-3-yloxy)pyrazolo[1,5-a][1,3,5]triazin-4-amine] | < 5 nM |  | 
15 | CC(C)c1cnn2c(NCc3ccccc3-c3ncco3)nc(O[C@@H]3CCCNC3)nc12 [(VII-49), (R)-8-isopropyl-N-(2-(oxazol-2-yl)benzyl)-2-(piperidin-3-yloxy)pyrazolo[1,5-a][1,3,5]triazin-4-amine] | < 5 nM |  | 
16 | CC(C)c1cnn2c(NCc3ccccc3-c3ccco3)nc(O[C@@H]3CCCNC3)nc12 [(VII-50), (R)-N-(2-(furan-2-yl)benzyl)-8-isopropyl-2-(piperidin-3-yloxy)pyrazolo[1,5-a][1,3,5]triazin-4-amine] | < 5 nM |  | 
17 | CC(=O)Nc1ccccc1CNc1nc(O[C@@H]2CCCNC2)nc2c(C(C)C)cnn12 [(VII-51), (R)-N-(2-(((8-isopropyl-2-(piperidin-3-yloxy)pyrazolo[1,5-a][1,3,5]triazin-4-yl)amino)methyl)phenyl)acetamide] | < 5 nM |  | IC50 ([1]; Table 7, read-out: IC50 CDK7): < 5 nM
18 | Cc1ccccc1CNc1nc(OC2CCN(C)CC2)nc2c(C(C)C)cnn12 [(VII-53), 8-isopropyl-N-(2-methylbenzyl)-2-((1-methylpiperidin-4-yl)oxy)pyrazolo[1,5-a][1,3,5]triazin-4-amine] | 5 to 10 nM | 50 to 500 nM | 
19 | CC(C)c1cnn2c(NCc3ccccc3N(C)C)nc(OC3CCN(C)CC3)nc12 [(VII-54), N-(2-(dimethylamino)benzyl)-8-isopropyl-2-((1-methylpiperidin-4-yl)oxy)pyrazolo[1,5-a][1,3,5]triazin-4-amine] | 5 to 10 nM | 50 to 500 nM | 
20 | CC(C)c1cnn2c(NCc3ccccc3C#N)nc(OC3CCN(C)CC3)nc12 [(VII-55), 2-(((8-isopropyl-2-((1-methylpiperidin-4-yl)oxy)pyrazolo[1,5-a][1,3,5]triazin-4-yl)amino)methyl)benzonitrile] | 10 to 25 nM | > 2500 nM | 
21 | CC(C)c1cnn2c(NCc3ccccc3-c3ccccc3)nc(OC3CCN(C)CC3)nc12 [(VII-57), N-([1,1′-biphenyl]-2-ylmethyl)-8-isopropyl-2-((1-methylpiperidin-4-yl)oxy)pyrazolo[1,5-a][1,3,5]triazin-4-amine] | < 5 nM | > 2500 nM | Selectivity CDK7 over CDK9 ([2]; Table 6): 909 fold; IC50 ([1]; Table 6, read-out: IC50 CDK7): < 5 nM
22 | CC(C)c1cnn2c(NCc3ccccc3C(F)(F)F)nc(OC3CCN(C)CC3)nc12 [(VII-058), 8-isopropyl-2-((1-methylpiperidin-4-yl)oxy)-N-(2-(trifluoromethyl)benzyl)pyrazolo[1,5-a][1,3,5]triazin-4-amine] | > 25 nM |  | 
23 | CC(C)c1cnn2c(NCc3ccccc3N3CCOCC3)nc(OC3CCN(C)CC3)nc12 [(VII-60), 8-isopropyl-2-((1-methylpiperidin-4-yl)oxy)-N-(2-morpholinobenzyl)pyrazolo[1,5-a][1,3,5]triazin-4-amine] | > 25 nM | > 2500 nM | 
24 | Cc1cccc(Cl)c1CNc1nc(OC2CCN(C)CC2)nc2c(C(C)C)cnn12 [(VII-62), N-(2-chloro-6-methylbenzyl)-8-isopropyl-2-((1-methylpiperidin-4-yl)oxy)pyrazolo[1,5-a][1,3,5]triazin-4-amine] | 10 to 25 nM | > 2500 nM | 
25 | CC(C)c1cnn2c(NCc3ccccc3NC(=O)Nc3ccccc3)nc(O[C@@H]3CCCNC3)nc12 [(VII-111), (R)-1-(2-(((8-isopropyl-2-(piperidin-3-yloxy)pyrazolo[1,5-a][1,3,5]triazin-4-yl)amino)methyl)phenyl)-3-phenylurea] | 10 to 25 nM |  | 
26 | CC(C)c1cnn2c(NCc3ccccc3-n3cccn3)nc(OC3CNC3)nc12 [(VII-141), N-(2-(1H-pyrazol-1-yl)benzyl)-2-(azetidin-3-yloxy)-8-isopropylpyrazolo[1,5-a][1,3,5]triazin-4-amine] | 10 to 25 nM |  | 
27 | CC(C)c1cnn2c(NCc3ccccc3)nc(OC3CCN(C)CC3)nc12 [C-I, reference compound] |  |  | IC50 ([1]; Table 6, read-out: IC50 CDK7): < 5 nM
28 | CC(C)c1cnn2c(NCc3ccccc3)nc(O[C@@H]3CCCNC3)nc12 [C-II, reference compound] |  |  | IC50 ([1]; Table 6, read-out: IC50 CDK7): < 5 nM
